In US8471005B2 (Cephalon, Inc., priority 2008, dated 2013):
pIC50: −log10 of the molar value.

Key:
ALK = molecular target: T1, ALK (Homo sapiens, UniProt Q9UM73); assay: ALK Kinase Assay (ELISA/TRF, PLC-γ substrate); format: biochemical; settings: ALK kinase inhibition, 1 μM ATP; read-out: ALK Potency
T1 construct: host or cells: baculovirus expression system
Summary of the method: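 Time-resolved fluorescence ELISA using Eu-N1 PT66 antibody to detect phosphorylated PLC-γ (coated at 10 μg/mL). Enzyme at 30 ng/ml ALK; 15 min incubation, 37° C.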

JAK2 = molecular target: T2, JAK2 (Homo sapiens, UniProt O60674); assay: Recombinant Human JAK2 Kinase Assay (TRF); format: biochemical; settings: JAK2 kinase inhibition, 0.2 μM ATP; read-out: JAK2 Potency
T2 construct: host or cells: baculovirus expression system
Summary of the method: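 TRF read-out: Eu-N1 PY100 anti-phosphotyrosine antibody detects product. Enzyme is baculovirus-expressed JAK2 at 15 ng/ml; substrate is a biotinyl 15-mer peptide bound to Neutravidin-coated wells. Buffer 20 mM HEPES pH 7.2, 0.2 μM ATP, 1 mM MnCl2, 0.1% BSA, 2.5% DMSO final; 20 min, RT.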

T2 sequence (O60674 whole entry): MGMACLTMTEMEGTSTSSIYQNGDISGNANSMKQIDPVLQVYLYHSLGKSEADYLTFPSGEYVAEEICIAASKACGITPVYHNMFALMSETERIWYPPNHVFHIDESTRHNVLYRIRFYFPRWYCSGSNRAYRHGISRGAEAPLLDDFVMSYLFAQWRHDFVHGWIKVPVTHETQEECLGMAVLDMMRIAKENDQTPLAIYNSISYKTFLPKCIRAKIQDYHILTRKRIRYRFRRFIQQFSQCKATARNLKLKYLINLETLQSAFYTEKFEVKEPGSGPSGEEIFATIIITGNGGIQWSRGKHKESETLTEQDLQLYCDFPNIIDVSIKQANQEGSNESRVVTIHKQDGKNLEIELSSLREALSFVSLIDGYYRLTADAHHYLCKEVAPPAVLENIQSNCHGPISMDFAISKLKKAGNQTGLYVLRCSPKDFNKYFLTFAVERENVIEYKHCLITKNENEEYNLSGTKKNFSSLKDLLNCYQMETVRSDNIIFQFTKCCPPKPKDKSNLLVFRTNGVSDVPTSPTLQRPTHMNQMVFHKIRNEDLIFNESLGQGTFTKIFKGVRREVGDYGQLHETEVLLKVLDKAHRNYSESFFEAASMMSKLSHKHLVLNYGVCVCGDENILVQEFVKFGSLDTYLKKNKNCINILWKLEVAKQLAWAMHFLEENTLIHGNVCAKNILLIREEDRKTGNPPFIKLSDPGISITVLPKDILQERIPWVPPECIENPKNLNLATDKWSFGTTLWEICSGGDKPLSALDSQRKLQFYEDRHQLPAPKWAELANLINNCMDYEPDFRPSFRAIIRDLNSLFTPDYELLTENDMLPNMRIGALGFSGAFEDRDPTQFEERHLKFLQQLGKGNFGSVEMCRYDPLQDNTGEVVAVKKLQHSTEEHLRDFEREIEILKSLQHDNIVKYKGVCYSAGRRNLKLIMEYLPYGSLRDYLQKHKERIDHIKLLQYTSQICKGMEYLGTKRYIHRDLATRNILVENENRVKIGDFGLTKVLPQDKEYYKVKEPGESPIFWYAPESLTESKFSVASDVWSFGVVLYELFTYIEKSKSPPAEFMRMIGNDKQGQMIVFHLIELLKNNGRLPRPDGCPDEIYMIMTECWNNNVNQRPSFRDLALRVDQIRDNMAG
T1 sequence (Q9UM73 19-1620): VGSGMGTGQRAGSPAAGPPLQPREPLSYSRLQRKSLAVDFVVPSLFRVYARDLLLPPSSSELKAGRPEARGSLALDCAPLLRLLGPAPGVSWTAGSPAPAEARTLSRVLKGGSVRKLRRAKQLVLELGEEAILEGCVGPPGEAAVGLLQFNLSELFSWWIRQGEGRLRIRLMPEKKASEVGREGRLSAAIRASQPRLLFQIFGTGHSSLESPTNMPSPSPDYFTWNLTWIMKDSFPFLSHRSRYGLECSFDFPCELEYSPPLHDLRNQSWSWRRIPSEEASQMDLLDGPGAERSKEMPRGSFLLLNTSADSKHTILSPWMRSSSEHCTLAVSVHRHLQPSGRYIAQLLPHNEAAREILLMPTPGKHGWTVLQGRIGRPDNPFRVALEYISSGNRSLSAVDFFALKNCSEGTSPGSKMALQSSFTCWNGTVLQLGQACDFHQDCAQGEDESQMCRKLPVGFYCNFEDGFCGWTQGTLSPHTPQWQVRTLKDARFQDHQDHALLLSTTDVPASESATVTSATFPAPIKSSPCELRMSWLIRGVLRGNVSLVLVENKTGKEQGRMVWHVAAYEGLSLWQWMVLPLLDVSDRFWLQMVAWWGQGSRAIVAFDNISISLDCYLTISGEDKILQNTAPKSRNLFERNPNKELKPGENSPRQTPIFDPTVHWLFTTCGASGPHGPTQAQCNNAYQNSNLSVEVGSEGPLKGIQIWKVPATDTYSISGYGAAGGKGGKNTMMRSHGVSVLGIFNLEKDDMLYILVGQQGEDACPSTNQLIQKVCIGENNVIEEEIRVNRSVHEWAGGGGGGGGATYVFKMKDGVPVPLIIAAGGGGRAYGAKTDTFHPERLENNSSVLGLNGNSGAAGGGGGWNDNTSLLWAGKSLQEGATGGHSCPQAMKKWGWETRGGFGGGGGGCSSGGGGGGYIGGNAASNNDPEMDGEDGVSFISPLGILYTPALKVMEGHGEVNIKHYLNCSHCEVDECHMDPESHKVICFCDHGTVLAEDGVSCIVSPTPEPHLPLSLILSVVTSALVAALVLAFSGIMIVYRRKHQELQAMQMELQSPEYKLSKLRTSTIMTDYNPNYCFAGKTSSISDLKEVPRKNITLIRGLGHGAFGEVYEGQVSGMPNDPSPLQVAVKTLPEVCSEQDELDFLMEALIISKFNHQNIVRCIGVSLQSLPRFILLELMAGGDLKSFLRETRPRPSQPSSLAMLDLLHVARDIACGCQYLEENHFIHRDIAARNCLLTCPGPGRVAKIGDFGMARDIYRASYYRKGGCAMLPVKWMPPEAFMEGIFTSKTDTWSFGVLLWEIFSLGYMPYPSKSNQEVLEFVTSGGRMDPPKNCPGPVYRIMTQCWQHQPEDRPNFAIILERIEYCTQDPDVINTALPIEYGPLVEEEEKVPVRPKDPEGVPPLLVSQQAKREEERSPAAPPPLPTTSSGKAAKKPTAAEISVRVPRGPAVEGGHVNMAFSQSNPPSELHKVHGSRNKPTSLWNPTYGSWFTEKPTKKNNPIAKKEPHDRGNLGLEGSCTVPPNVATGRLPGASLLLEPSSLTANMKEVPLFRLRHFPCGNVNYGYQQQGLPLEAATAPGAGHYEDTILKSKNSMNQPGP

SMILES: CN1CCN(c2ccc(Nc3ncc4ccc(-c5cccc(N6CCN(C(=O)OC(C)(C)C)CC6)c5)n4n3)cc2)CC1 [Example 1166, 4-(3-{2-[4-(4-Methyl-piperazin-1-yl)-phenylamino]-pyrrolo[2,1-f][1,2,4]triazin-7-yl}-phenyl)-piperazine-1-carboxylic acid tert-butyl ester]
- pIC50 (ALK): 5.00 to 6.00
- pIC50 (JAK2): > 7.00

SMILES: CN1CCN(c2cccc(Nc3ncc4ccc(NCc5ccncc5)n4n3)c2)CC1 [Example 1167, N(2)-[3-(4-Methyl-piperazin-1-yl)-phenyl]-N(7)-pyridin-4-ylmethyl-pyrrolo[2,1-f][1,2,4]triazine-2,7-diamine]
- pIC50 (ALK): < 5.00
- pIC50 (JAK2): 6.00 to 7.00

SMILES: CN1CCN(c2cccc(Nc3ncc4ccc(NCc5cccnc5)n4n3)c2)CC1 [Example 1168, N-(2)-[3-(4-Methyl-piperazin-1-yl)-phenyl]-N(7)-pyridin-3-ylmethyl-pyrrolo[2,1-f][1,2,4]triazine-2,7-diamine]
- pIC50 (ALK): 5.00 to 6.00
- pIC50 (JAK2): > 7.00

SMILES: CN1CCN(c2ccc(Nc3ncc4ccc(-c5cccc(N6CCNCC6)c5)n4n3)cc2)CC1 [Example 1169, [4-(4-Methyl-piperazin-1-yl)-phenyl]-[7-(3-piperazin-1-yl-phenyl)-pyrrolo[2,1-f][1,2,4]triazin-2-yl]-amine]
- pIC50 (ALK): 6.00 to 7.00
- pIC50 (JAK2): > 7.00

SMILES: COc1cc(N2CCC(N3CCOCC3)CC2)ccc1Nc1ncc2ccc(-c3cccnc3)n2n1 [Example 1170, [2-Methoxy-4-(4-morpholin-4-yl-piperidin-1-yl)-phenyl]-(7-pyridin-3-yl-pyrrolo[2,1-f][1,2,4]triazin-2-yl)-amine]
- pIC50 (ALK): 6.00 to 7.00
- pIC50 (JAK2): > 7.00

SMILES: CN(c1ccccc1-c1ccc2cnc(OCCN3CCN(c4ccc(N)cc4)CC3)nn12)S(C)(=O)=O [Example 1172, N-[2-(2-{2-[4-(4-Amino-phenyl)-piperazin-1-yl]-ethoxy}-pyrrolo[2,1-f][1,2,4]triazin-7-yl)-phenyl]-N-methyl-methanesulfonamide]
- pIC50 (ALK): < 5.00
- pIC50 (JAK2): 5.00 to 6.00

SMILES: CN1CCN(c2ccc(Nc3ncc4ccc(-c5ccccc5OCC(=O)OC(C)(C)C)n4n3)cc2)CC1 [Example 1173, (2-{2-[4-(4-Methyl-piperazin-1-yl)-phenylamino]-pyrrolo[2,1-f][1,2,4]triazin-7-yl}-phenoxy)-acetic acid tert-butyl ester]
- pIC50 (ALK): 5.00 to 6.00
- pIC50 (JAK2): > 7.00

SMILES: CS(=O)(=O)c1ccc(-c2ccc3cnc(Nc4ccc5c(c4)NC(=O)C(NC(=O)C(F)(F)F)CC5)nn23)cc1 (stereo not drawn) [Example 1174, 2,2,2-Trifluoro-N-{8-[7-(4-methanesulfonyl-phenyl)-pyrrolo[2,1-f][1,2,4]triazin-2-ylamino]-2-oxo-2,3,4,5-tetrahydro-1H-benzo[b]azepin-3-yl}-acetamide]
- pIC50 (ALK): < 5.00
- pIC50 (JAK2): > 7.00

SMILES: CN(c1ccccc1-c1ccc2cnc(Nc3ccc(N4CCN(CCO)CC4)cc3)nn12)S(C)(=O)=O [Example 1175, N-[2-(2-{4-[4-(2-Hydroxy-ethyl)-piperazin-1-yl]-phenylamino}-pyrrolo[2,1-f][1,2,4]triazin-7-yl)-phenyl]-N-methyl-methanesulfonamide]
- pIC50 (ALK): > 7.00
- pIC50 (JAK2): > 7.00

SMILES: CN(c1ccccc1-c1ccc2cnc(Nc3ccc(N4CCOCC4)cn3)nn12)S(C)(=O)=O [Example 1176, N-Methyl-N-{2-[2-(5-morpholin-4-yl-pyridin-2-ylamino)-pyrrolo[2,1-f][1,2,4]triazin-7-yl]-phenyl}-methanesulfonamide]
- pIC50 (ALK): 5.00 to 6.00
- pIC50 (JAK2): > 7.00

SMILES: COc1ccccc1-c1ccc2cnc(Nc3ccc(N4CCN(C)CC4)cn3)nn12 [Example 1177, [7-(2-Methoxy-phenyl)-pyrrolo[2,1-f][1,2,4]triazin-2-yl]-[5-(4-methyl-piperazin-1-yl)-pyridin-2-yl]-amine]
- pIC50 (ALK): 6.00 to 7.00
- pIC50 (JAK2): > 7.00

SMILES: CN1CCC(c2ccc(Nc3ncc4ccc(-c5ccccc5N(C)S(C)(=O)=O)n4n3)cc2)CC1 [Example 1178, N-Methyl-N-(2-{2-[4-(1-methyl-piperidin-4-yl)-phenylamino]-pyrrolo[2,1-f][1,2,4]triazin-7-yl}-phenyl)-methanesulfonamide]
- pIC50 (ALK): > 7.00
- pIC50 (JAK2): > 7.00
